According to patent US20050019331A1, “Synthetic peptide neutrophil cell chemotactic agents” (Chrysalis Biotechnology, priority 1994, published 2005):
Ends that are not written are not given here.

Tests used:
human neutrophils = test: Neutrophil chemotaxis in Modified Boyden 48-well Microchemotaxis Chambers; format: cell-based; settings: for maximal stimulation of neutrophil chemotaxis relative to thrombin or IL-8: FIG. 3 vs FIG. 1C
Description: Human neutrophils were isolated from blood of healthy volunteers, drawn into one-tenth volume of trisodium citrate. The neutrophils were isolated from the blood using established Ficoll-Hypaque (MONO POLYRESOLVING MEDIUM™) protocol, Kalmer et al. 1988, specifically incorporated herein by reference. The cells were washed in HBSS containing 20 mM HEPES, pH 7.4 (HHBSS), pelleted by centrifugation (600×g), and resuspended into HHBSS at the indicated density. Trypan blue exclusion assays indicated greater than 97% cell viability.
Freshly isolated human neutrophils (150,000 cells per 50 μl) were applied to wells of Modified Boyden 48-well Microchemotaxis Chambers (Neuro Probe, Cabin John, Md.) with pre-wet […], PVP-free polycarbonate membranes (Neuro Probe, Cabin John, Md.) (see Mansfield, et al. 1990, which is specifically incorporated herein by reference). The lower well in these chambers were filled with 27 μl of HHBSS solution containing indicated concentrations of substances to be tested. After loading, the chambers were incubated for 2 hours at 37° C. Membranes were removed, rinsed with HHBSS, fixed and stained using DIFF-QUIK® to visualize and quantitate cells that had migrated through the filters. For each assay condition, cells migrating through 4 wells were examined using a Nikon Microscope (at 400×). For each well, the total cells present in 6 random fields were counted and recorded. Each assay represents data from at least three analyses of the same type with neutrophils isolated from at least two individuals.
Freshly isolated human peripheral blood neutrophils were added to wells of Modified Boyden Microwell Chemotaxis Chambers and the number of cells migrating through the filters was determined as described in Materials and Methods. For each assay, cells migrating through 4 wells were examined, counted, and recorded (6 random fields per well) using a Nikon LabPhot Microscope (400×).
Human neutrophils were added to wells of Boyden Microwell Chambers and assayed for directed chemotaxis toward indicated concentrations of synthetic peptides representing the tethered ligand region of PART (SFLLRNPNDKYEPF—SEQ ID NO.: 7), or TRAP-508, the high-affinity receptor binding domain of human thrombin ([…]—SEQ ID NO.: 8).
Indicated concentrations of peptides representing residues 26-41 of the human (SEQ ID NO.: 1) (∇) or hamster (SEQ ID NO.: 2) (∘) PART receptor component were added to lower wells of Boyden Microwell Chambers and neutrophil chemotaxis toward the peptides was assayed as described above.

[1] = tested on: fibroblasts and other cells; settings: Van Obberghen-Schilling and Pouyssegur 1993; cited from earlier work
neutrophils = test: Superoxide generation by stimulated neutrophils (SOD-inhibitable ferricytochrome C reduction); format: cell-based, human; settings: for O2 released (superoxide generation): 2×10^6 neutrophils/ml, twenty minutes after addition
Description: Superoxide generation was determined by measuring the superoxide dismutase (SOD)-inhibitable reduction of ferricytochrome C (Thomas et al., 1992, incorporated herein by reference). Briefly, 2×10^6 neutrophils/ml were incubated with, ferricytochrome C (433 μg/ml) and glucose (1.1 mM) in phosphate buffered saline (PBS) at 37° C. for five minutes, in presence or absence of 1 μg/ml SOD. Twenty minutes after addition of NTP, IL-8, or PBS, aliquots were removed, cooled to 4° C., and filtered through […] particle separators (Amicon). The optical absorption of the filtrate was then read at 550 nm. The amount of O2 generated was calculated by the difference in absorbance of the samples with or without SOD, using a 15.5 millimolar extinction coefficient at 550 nm for cytochrome C reduction.

fibroblasts [2] = test: c-fos and other G-protein initiated signals in fibroblasts; format: cell-based; settings: compared with proteolytically active thrombin
Excerpt: Therefore, the PART activating peptide fragment was not sufficient to stimulate chemotaxis.

[3] = tested on: NTP receptor on human neutrophils; test: 125I-NTP-Y saturation binding to neutrophils
Description: NTP was radiolabeled using IODO-GEN® (Pierce) catalyzed iodination (Fraker and Speck, 1978, specifically incorporated herein by reference). 5 mCi of Na^125I (Amersham, UK) was incubated in glass tubes coated with IODO-GEN® with 250 μg of HPLC-purified NTP-Y in 250 μl of Phosphate Buffered Saline (PBS), pH 7.2. After 7 minutes, the radiolabeled peptide was separated from free ^125Iodine by its adsorption to a C-18 SEP PAK® column, followed by elution with 100% acetonitrile. The eluted radioactive peptide was then dried under vacuum to remove acetonitrile, rehydrated with PBS, and stored as frozen aliquots (−20° C.) at a concentration of 100 μg/ml.
For saturation binding assays, […] were incubated at 37° C. with indicated concentrations of ^125I-NTP-Y in 100 μl of DV medium containing 20 mM HEPES buffer, pH 7.4, in 0.6 ml eppendorf tubes. The binding was terminated and ^125I-NTP-Y that was bound to cells was separated from free ^125I-NTP-Y by rapid filtration and rinsing (2× with 10 mls of 4° C. PBS) through Whatman GF/C filters, using a Millipore filtration apparatus. Radioactivity on filters was then counted in a gamma counter (Beckman Instruments, Inc., model Gamma 4000). Nonspecific binding of ^125I-NTP-Y was measured in the presence of a 500-fold molar excess of unlabeled peptide and was subtracted from total binding to determine the amount of specific (saturable) binding.
NTP was synthesized with an N-terminal tyrosine (YRRPESKATNATLDPR—SEQ ID NO.: 6), analyzed for chemotactic activity, and radiolabeled as described in methods. […] Specific binding was determined by subtracting the nonspecific binding of ^125I-NTP-Y (binding in the presence of 500-fold molar excess of unlabeled NTP-Y) from the total binding. Insert represents a Scatchard-like analysis of the binding isotherm using total radioactivity in the medium as a measure of free ligand. […]

fibroblasts [4] = test: Parallel 125I-NTP-Y binding studies with fibroblasts
Excerpt: The chemotactic effects of NTP appeared to be mediated by interaction with specific NTP receptor binding sites on the surface of neutrophils.

Q: With “RRPESKATNA TLDPR (RRPESKATNATLDPR) [SEQ ID NO.: 1, peptide representing residues 26-41 of the human PART receptor component]” as the substance, how does the “maximal stimulation of neutrophil chemotaxis relative to thrombin or IL-8” value (human neutrophils) read?
A: nearly equivalent to that seen with thrombin or IL-8

Q: For SFFLRN [reference compound], which neutrophil chemotaxis (human neutrophils; concentrations up to 2000-fold higher than NTP) is on record?
A: did not

Q: Which results are given for “NTP: released N-terminal fragment peptide of PART; species (human or hamster) not stated at these places (RQPESEMTDATVNPR)”?
A: neutrophil chemotaxis (human neutrophils; NTP, Example 4): stimulated neutrophil chemotaxis; activity on fibroblasts and other cells [1]: no apparent activity; superoxide generation compared to IL-8 (neutrophils; 800 nM NTP vs 400 nmolar IL-8): negligible; O2 released (superoxide generation) (neutrophils; 800 nM NTP): 9 ± 0.9 nmol

Q: What does the source list for IL-8: recombinant IL-8?
A: EC50 (human neutrophils; FIG. 1, 2 hours at 37° C., read-out: concentration required for half-maximal stimulation of neutrophil chemotaxis): ~10 nM; O2 released (superoxide generation) (neutrophils; 400 nmolar IL-8): 102 ± 16 nmol

Q: For “SFLLRNPNDKYEPF [PART activating peptide fragment, synthetic peptide representing the tethered ligand region of PART, reference compound]”, which neutrophil chemotaxis (human neutrophils; concentrations up to 7.0 μM, FIG. 2) is on record?
A: only marginally chemotactic

Q: What about the “stimulation of c-fos and other G-protein initiated signals” value (fibroblasts [2]) of the same substance?
A: nearly the same extent as proteolytically active thrombin

Q: For “^125I-NTP-Y: NTP-Y radiolabeled with 125I by IODO-GEN catalyzed iodination (YRRPESKATNATLDPR; also: 125I radiolabel)”, which “binding to human neutrophils” value ([3]; 40 min at 37° C., FIG. 5) is on record?
A: specified and saturable

Q: And the “NTP receptors per cell (saturation curve and Scatchard-like analysis)” value ([3]; human neutrophils, FIG. 5 insert)?
A: ~3000 receptors per cell

Q: And the “dose-response curve compared with NTP” value ([3]; iodinated peptide, iodination does not alter peptide activity)?
A: nearly identical to NTP

Q: And the “specific binding to fibroblasts” value (fibroblasts [4])?
A: no detectable specific binding

Q: Which “maximal stimulation of neutrophil chemotaxis relative to thrombin or IL-8” value (human neutrophils) does the source give for “RQPESEMTDA TVNPR (RQPESEMTDATVNPR) [SEQ ID NO.: 2, peptide representing residues 26-41 of the hamster PART receptor component]” here?
A: nearly equivalent to that seen with thrombin or IL-8
